Assay results from patent publication US10711006B2, “Selective Bruton's tyrosine kinase inhibitor and use thereof” (HANGZHOU HERTZ PHARMACEUTICAL CO., LTD., priority 2016, dated 2020).
pIC50: −log10 of the molar value. One block for each compound: values may come before it.

Tests used:
[1] = molecular target: BTK Kinase (Homo sapiens (Human), UniProt Q06187); assay: In-vitro Btk kinase inhibitory activity assay; assay type: biochemical
Protocol: In-Vitro Btk Kinase Inhibitory Activity Assay for Compounds of the Present Invention:
10 μL of the 50× drug stock solution was added to a 96-well plate and then 90 μL of a 1× Kinase Buffer was added and the 96-well plate was shaken for 10 minutes on a shaker. From each well of the 96-well plate, 5 μL of the drug solution was taken and then transferred to a 384-well plate which was provided with 2 duplicate wells.
Preparation of a 2.5× Kinase Buffer: an enzyme was added to the 1× kinase base buffer.
Prepare a 2.5× oligopeptide solution: FAM-labeled oligopeptide and ATP were added to the 1× kinase base buffer.
10 μL of the 2.5× Kinase Buffer was added to the 384-well plate loaded with 5 μL of the drug solution and incubation was then carried out for 10 minutes at room temperature. 10 μL of the 2.5× oligopeptide solution was added to the 384-well plate and incubation was then carried out for 1 hour at 28° C. The reaction was stopped by adding 25 μL of a stop buffer. The readings were recorded and the inhibition rate of the compound on the enzyme was calculated. The IC50 of BTK kinase was calculated by fitting.

[2] = tested on: human lung cancer cell (A549); assay: In-vitro tumor cell proliferation inhibition (CCK-8), A549; details: A549, 72 h, read-out: Tumor cell proliferation inhibitory activity (IC50, μM) A549
Protocol: (§1) The in-vitro antitumor activity assay was carried out on the synthesized compound by using different solid tumors and leukemia cell lines:
(§2) Cell lines: human lung cancer cell (A549), human mantle cell lymphoma (MINO), diffuse giant B-cell lymphoma (OCI-LY10), and human diffuse large B lymphoma (TMD-8).
(§3) Preparation method of the drug: the drug was dissolved in DMSO to make a 10 mM stock solution, and then the stock solution was diluted in a certain ratio to obtain 5 different concentrations (test concentration 100×). In-vitro culture of tumor cells:
(§4) The tumor cells A549, MINO, OCI-LY10, and TMD-8 were seeded in a 96-well plate at 4000 cells/200 μL/well and then incubated overnight at 37° C. in a 5% CO2 cell culture incubator. 2 μL of the compound was added to each well to final concentrations of 50 μM, 10 μM, 2 μM, 0.4 μM, and 0.08 μM and then incubated for 72 hours at 37° C. in a 5% CO2 cell incubator, with DMSO (2%) as a control group. […] Wells loaded with the corresponding amount of cell culture fluid the and CCK-8 solution but no cells were considered as blank controls. The absorbance (OD value) was measured at 450 nm using a microplate reader, and the obtained data was used to calculate IC50.

[3] = tested on: human mantle cell lymphoma (MINO); assay: In-vitro tumor cell proliferation inhibition (CCK-8), MINO; details: 72 h, read-out: Tumor cell proliferation inhibitory activity (IC50, μM) MINO
Protocol: as §1, §2, §3, §4

[4] = tested on: human diffuse large B lymphoma (TMD-8); assay: In-vitro tumor cell proliferation inhibition (CCK-8), TMD-8; details: TMD8, 72 h, read-out: Tumor cell proliferation inhibitory activity (IC50, nM) TMD-8
Protocol: as §1, §2, §3, §4

[5] = tested on: diffuse giant B-cell lymphoma (OCI-LY10); assay: In-vitro tumor cell proliferation inhibition (CCK-8), OCI-LY10; details: Homo sapiens, OCI-Ly10, 72 h, read-out: Tumor cell proliferation inhibitory activity (IC50, nM) OCI-LY10
[6] = molecular target: hERG potassium channel (Homo sapiens (Human), UniProt Q12809); assay: hERG potassium channel inhibitory activity, manual patch clamp in CHO cells; assay type: cell-based; details: CHO cells stably expressing hERG, whole-cell patch clamp
Sequence of hERG potassium channel (Q12809 whole entry): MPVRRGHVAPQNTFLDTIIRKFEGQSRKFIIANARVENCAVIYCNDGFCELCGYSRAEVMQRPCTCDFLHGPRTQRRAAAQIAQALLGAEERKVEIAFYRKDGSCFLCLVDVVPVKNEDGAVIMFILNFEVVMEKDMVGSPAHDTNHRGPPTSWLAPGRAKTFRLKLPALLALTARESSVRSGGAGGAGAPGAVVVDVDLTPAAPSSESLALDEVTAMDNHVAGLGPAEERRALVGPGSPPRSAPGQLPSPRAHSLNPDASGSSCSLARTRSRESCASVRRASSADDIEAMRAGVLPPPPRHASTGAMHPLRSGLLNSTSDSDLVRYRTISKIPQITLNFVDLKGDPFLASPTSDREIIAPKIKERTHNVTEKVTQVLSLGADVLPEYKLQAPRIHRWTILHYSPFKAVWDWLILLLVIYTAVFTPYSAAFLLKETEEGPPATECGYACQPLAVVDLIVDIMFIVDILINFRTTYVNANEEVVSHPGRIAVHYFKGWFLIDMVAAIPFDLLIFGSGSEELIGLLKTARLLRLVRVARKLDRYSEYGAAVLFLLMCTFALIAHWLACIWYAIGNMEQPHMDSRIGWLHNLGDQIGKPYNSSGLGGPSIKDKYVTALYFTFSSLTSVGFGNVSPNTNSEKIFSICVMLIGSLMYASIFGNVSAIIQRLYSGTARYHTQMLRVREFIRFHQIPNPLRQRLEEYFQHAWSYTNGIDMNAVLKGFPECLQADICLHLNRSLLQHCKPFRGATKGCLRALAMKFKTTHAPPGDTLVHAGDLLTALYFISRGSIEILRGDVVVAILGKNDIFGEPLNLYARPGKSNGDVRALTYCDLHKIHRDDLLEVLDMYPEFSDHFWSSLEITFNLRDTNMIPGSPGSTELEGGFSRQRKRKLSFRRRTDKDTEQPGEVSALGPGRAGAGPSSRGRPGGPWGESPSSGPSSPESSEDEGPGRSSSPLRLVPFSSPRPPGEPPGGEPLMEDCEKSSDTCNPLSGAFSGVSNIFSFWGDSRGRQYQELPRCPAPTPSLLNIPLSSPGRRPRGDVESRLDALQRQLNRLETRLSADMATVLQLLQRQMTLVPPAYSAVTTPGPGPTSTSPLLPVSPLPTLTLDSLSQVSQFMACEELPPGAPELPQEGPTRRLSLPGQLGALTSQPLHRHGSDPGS
Protocol: The cells used in this experiment were CHO cell lines transfected with HergCdna and stably expressing Herg channels (supplied by Sophion Bioscience, Denmark). The cells were cultured in a medium containing the following components (all from Invitrogen): Ham's F12 medium, 10% (v/v) inactivated fetal bovine serum, 100 μg/ml hygromycin B, 100 μg/ml Geneticin. […] 24 to 48 hours before an electrophysiological experiment, CHO Herg cells were transferred to circular slides placed in the culture dishes and grow with the same culture liquid under the same culture conditions as above. The density of CHO Herg cells on each circular slide was required to reach such a value that most cells were independent and stand alone.
2. Treatment and Dilution of a Compound
Before the test, the compound was first diluted with DMSO at gradient to make stock solutions with concentrations of 10, 3, 1, 0.3 and 0.1 Mm and the stock solutions were then diluted with extracellular fluid to a final Mm test concentration. Except that the DMSO concentration in the 30 Mm compound test solution was 0.3%, the final concentration of DMSO in each of the compound solutions with other concentrations was 0.1%. The test concentration of a positive control Cisapridewas 0.1 Mm. All compound solutions were conventionally sonicated and shaken for 5 to 10 minutes to ensure complete dissolution of the compound.
3. Electrophysiological Recording System and Data Analysis
This experiment uses a manual patch clamp system (HEKA EPC-10 signal amplifier and digital conversion system, purchased from HEKA Electronics, Germany) for the recording of whole cell currents. The circular slides with CHO Herg cells growing on the surfaces were placed in an electrophysiological recording slot under an inverted microscope. The extracellular fluid was used for continuous perfusion in the recording slot (approximately lml per minute). The experimental procedure uses a conventional whole-cell patch clamp current recording technique. Unless otherwise stated, the experiment was carried out at regular room temperature ([…]). The cells were clamped at a voltage of −80 Mv. The cell clamp voltage was depolarized to +20 Mv to activate the Herg potassium channel, and 5 seconds later, it was clamped to −50 Mv to eliminate inactivation and generate tail current. The peak of the tail current was used as the value of the Herg current. After the hERG potassium current recorded in the above step was stabilized under the continuous extracellular fluid perfusion in the recording slot, the drug to be tested can be superimposed to the perfusion until the inhibitory effect of the drug on the hERG current reaches a steady state. Generally, the criterion for determine whether or not the stable state was reached was that the recent three consecutive current recording lines were coincident. After the steady state was reached, extracellular fluid perfusion was carried out for flushing until the hERG current returns to the magnitude before the drug was added. One cell may be used for testing one or more drugs, or multiple concentrations of the same drug, and flushing with extracellular fluid was carried out between tests of different drugs. Cisapride (purchased from Sigma) was used in the experiment as a positive control to ensure that the cells used were of normal quality. The test data was analyzed by data analysis software provided by HEKA Patchmaster, Microsoft Excel and Graphpad Prism.

[7] = Oral pharmacokinetic experiment in SD rats; assay type: in vivo
Protocol: SD rats were used as experimental animals and were subjected to intragastric administration in a dose of 10 mg/kg and tail-vein intravenous injection in a dose of 2 mg/kg. The tail-vein blood sampling time points in the intragastric administration were 0.17, 0.33, 0.5, 1, 1.5, 2, 4, 6, 8, 12, and 24 hours; the blood sampling time points in the intravenous administration were 0.05, 0.1, 0.17, 0.5, 1, 2, 4, 6, 8, 12, and 24 hours. 0.3 ml of whole blood was taken, and 0.1 ml of plasma after centrifugation was taken and analyzed by LC-MS.

[8] = oral (intragastric) 10 mg/kg, mean n = 3

Sequence of BTK Kinase (Q06187 whole entry): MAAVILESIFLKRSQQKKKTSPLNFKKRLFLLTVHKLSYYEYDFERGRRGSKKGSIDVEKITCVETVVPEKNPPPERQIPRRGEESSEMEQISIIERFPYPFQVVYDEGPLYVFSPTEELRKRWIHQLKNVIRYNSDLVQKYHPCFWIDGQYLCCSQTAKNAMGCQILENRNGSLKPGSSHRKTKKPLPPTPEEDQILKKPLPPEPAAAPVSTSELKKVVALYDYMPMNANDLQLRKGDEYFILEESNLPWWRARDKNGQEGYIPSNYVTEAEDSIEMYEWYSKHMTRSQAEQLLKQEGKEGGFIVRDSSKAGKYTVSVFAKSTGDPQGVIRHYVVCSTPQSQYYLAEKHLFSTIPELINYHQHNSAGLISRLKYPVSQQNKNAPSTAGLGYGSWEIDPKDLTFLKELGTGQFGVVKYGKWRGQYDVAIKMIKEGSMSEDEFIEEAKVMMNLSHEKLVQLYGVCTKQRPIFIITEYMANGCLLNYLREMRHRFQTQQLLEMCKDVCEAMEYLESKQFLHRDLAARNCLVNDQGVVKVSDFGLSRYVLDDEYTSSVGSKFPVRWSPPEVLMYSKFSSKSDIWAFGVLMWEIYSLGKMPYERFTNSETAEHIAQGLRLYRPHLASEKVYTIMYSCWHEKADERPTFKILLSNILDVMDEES

SMILES: C=CC(=O)N1CCC[C@@H](n2nc(-c3ccc(Oc4cccc(F)c4)nc3)c3c(N)ncnc32)C1 [Compound 15c, (R)-1-(3-(4-amino-3-(6-(3-fluorophenoxypyridine)-3-yl)-1H-pyrazolo[3,4-d]pyrimidin-1-yl)piperidin-1-yl)prop-2-en-1-one]
pIC50 [1]: 8.07
IC50 [2]: 2.06 µM
IC50 [3]: 6.23 µM
IC50 [4]: 4.12 nM
IC50 [5]: 2.23 nM

SMILES: C=CC(=O)N1CCC[C@@H](n2nc(-c3ccc(Oc4ccccc4F)nc3)c3c(N)ncnc32)C1 [Compound 15d, (R)-1-(3-(4-amino-3-(6-(2-fluorophenoxypyridine)-3-yl)-1H-pyrazolo[3,4-d]pyrimidin-1-yl)piperidin-1-yl)prop-2-en-1-one]
pIC50 [1]: 8.12
IC50 [2]: 5.12 µM
IC50 [3]: 9.15 µM
IC50 [4]: 3.83 nM
IC50 [5]: 5.12 nM

SMILES: C=CC(=O)N1CCC[C@@H](n2nc(-c3ccc(Oc4ccc(Cl)cc4)nc3)c3c(N)ncnc32)C1 [Compound 15e, (R)-1-(3-(4-amino-3-(6-(4-chlorophenoxypyridine)-3-yl)-1H-pyrazolo[3,4-d]pyrimidin-1-yl)piperidin-1-yl)prop-2-en-1-one]
pIC50 [1]: 7.98

SMILES: C=CC(=O)N1CCC[C@@H](n2nc(-c3ccc(Oc4ccc(F)c(F)c4)nc3)c3c(N)ncnc32)C1 [Compound 15f, (R)-1-(3-(4-amino-3-(6-(3,4-difluorophenoxypyridine)-3-yl)-1H-pyrazolo[3,4-d]pyrimidin-1-yl)piperidin-1-yl)prop-2-en-1-one]
pIC50 [1]: 7.60

SMILES: C=CC(=O)N1CCC[C@@H](n2nc(-c3ccc(Oc4c(F)cccc4F)nc3)c3c(N)ncnc32)C1 [Compound 15g, (R)-1-(3-(4-amino-3-(6-(2,6-difluorophenoxypyridine)-3-yl)-1H-pyrazolo[3,4-d]pyrimidin-1-yl)piperidin-1-yl)prop-2-en-1-one]
pIC50 [1]: 8.11

SMILES: C=CC(=O)N1CCC[C@@H](n2nc(-c3ccc(Oc4cccc(F)c4F)nc3)c3c(N)ncnc32)C1 [Compound 15h, (R)-1-(3-(4-amino-3-(6-(2,3-difluorophenoxypyridine)-3-yl)-1H-pyrazolo[3,4-d]pyrimidin-1-yl)piperidin-1-yl)prop-2-en-1-one]
pIC50 [1]: 8.49

SMILES: C=CC(=O)N1CCC[C@@H](n2nc(-c3ccc(Oc4ccc(OC)cc4)nc3)c3c(N)ncnc32)C1 [Compound 15j]
pIC50 [1]: 7.49
pIC50 [6]: 4.76

SMILES: C=CC(=O)N1CCC[C@@H](n2nc(-c3ccc(Oc4ccc(C(F)(F)F)cc4)nc3)c3c(N)ncnc32)C1 [Compound 15k, (R)-1-(3-(4-amino-3-(6-(4-trifluoromethylphenoxypyridine)-3-yl)-1H-pyrazolo[3,4-d]pyrimidin-1-yl)piperidin-1-yl)prop-2-en-1-one]
pIC50 [1]: 7.74

SMILES: C=CC(=O)N1CCC[C@@H](n2nc(-c3cnc(Oc4ccccc4)cc3F)c3c(N)ncnc32)C1 [Compound 16a, (R)-1-(3-(4-amino-3-(4-fluoro-6-phenoxypyridin-3-yl)-1H-pyrazolo[3,4-d]pyrimidin-1-yl)piperidin-1-yl)prop-2-en-1-one]
pIC50 [1]: 8.05
pIC50 [6]: 5.16

SMILES: C=CC(=O)N1CCC[C@@H](n2nc(-c3cnc(Oc4ccccc4)c(F)c3)c3c(N)ncnc32)C1 [Compound 16b, (R)-1-(3-(4-amino-3-(5-fluoro-6-phenoxypyridin-3-yl)-1H-pyrazolo[3,4-d]pyrimidin-1-yl)piperidin-1-yl)prop-2-en-1-one]
pIC50 [1]: 8.07

SMILES: C=CC(=O)N1CCC[C@@H](n2nc(-c3cnc(Oc4ccccc4)cc3C)c3c(N)ncnc32)C1 [Compound 16c, (R)-1-(3-(4-amino-3-(4-methyl-6-phenoxypyridin-3-yl)-1H-pyrazolo[3,4-d]pyrimidin-1-yl)piperidin-1-yl)prop-2-en-1-one]
pIC50 [1]: 8.18

SMILES: C=CC(=O)N1CCC[C@@H](n2nc(-c3ccc(Oc4ccccc4)nc3C)c3c(N)ncnc32)C1 [Compound 16d, (R)-1-(3-(4-amino-3-(2-methyl-6-phenoxypyridin-3-yl)-1H-pyrazolo[3,4-d]pyrimidin-1-yl)piperidin-1-yl)prop-2-en-1-one]
pIC50 [1]: 8.14

SMILES: Nc1ncnc2c1c(-c1ccc(Oc3ccccc3)nc1)nn2[C@@H]1CCCN(C(=O)C#CCCO)C1 [Compound 21c, (R)-1-(3-(4-amino-3-(6-phenoxypyridin-3-yl)-1H-pyrazolo[3,4-d]pyrimidin-1-yl)piperidin-1-yl)-5-hydroxypent-2-yn-1-one]
pIC50 [6]: 4.60

SMILES: C=CC(=O)N1CCC[C@@H](n2nc(-c3ccc(Oc4ccccc4)cc3)c3c(N)ncnc32)C1 [Ibrutinib, reference compound]
AUC0-C(ng/h/mL) [7, 8]: 550 ng·h/mL
AUC0-t (ng/h/mL) [7, 8]: 544 ng·h/mL
bioavailability ([7]; rat, plasma, oral 10 mg/kg vs intravenous 2 mg/kg, mean n = 3): 12.5%
Cmax ([7]; rat, plasma, oral (intragastric) 10 mg/kg, mean n = 3): 254 ng/mL

Next, values leading:

pIC50 [1]: 8.02
SMILES: C=CC(=O)N1CC[C@@H](n2nc(-c3ccc(Oc4ccccc4F)nc3)c3c(N)ncnc32)C1 [Compound 23b, (R)-1-(3-(4-amino-3-(6-(2-fluorophenoxy)pyridin-3-yl)-1H-pyrazolo[3,4-d]pyrimidin-1-yl)pyrrolidin-1-yl)prop-2-en-1-one]

pIC50 [1]: 8.01
SMILES: C=CC(=O)N1CC[C@@H](n2nc(-c3ccc(Oc4c(F)cccc4F)nc3)c3c(N)ncnc32)C1 [Compound 23c, (R)-1-(3-(4-amino-3-(6-(2,6-difluorophenoxy)pyridin-3-yl)-1H-pyrazolo[3,4-d]pyrimidin-1-yl)pyrrolidin-1-yl)prop-2-en-1-one]

pIC50 [1]: 8.13
SMILES: C=CC(=O)N1CC[C@@H](n2nc(-c3ccc(Oc4cccc(F)c4F)nc3)c3c(N)ncnc32)C1 [Compound 23d, (R)-1-(3-(4-amino-3-(6-(2,3-difluorophenoxy)pyridin-3-yl)-1H-pyrazolo[3,4-d]pyrimidin-1-yl)pyrrolidin-1-yl)prop-2-en-1-one]

oral bioavailability relative to ibrutinib ([7]; oral 10 mg/kg): 3.69 times
SMILES: C=CC(=O)N1CC[C@H](n2nc(-c3ccc(Oc4ccccc4)nc3F)c3c(N)ncnc32)C1 [Compound 24b, (S)-1-(3-(4-amino-3-(2-fluoro-6-phenoxypyridin-3-yl)-1H-pyrazolo[3,4-d]pyrimidin-1-yl)pyrrolidin-1-yl)prop-2-en-1-one]
